# Laboratory results taken from patent publication US4965280A, “Antifungal carbinols” (E. I. Du Pont de Nemours and Company, priority 1989, dated 1990).
# Where two headings read alike, the source gives them in different places.
# Columns and labels:
# [1] = test system: Candida albicans ATCC 11651; assay: In vitro antifungal MIC, microtiter broth dilution; settings: Candida albicans, ATCC11651, 24 h, read-out: MIC values, C. albicans, 30°, 24 hours
# [2] = test system: Puccinia recondita; assay: Example G wheat leaf rust; type: in vivo; settings: read-out: disease control rating, Ex. G
# [3] = test system: Candida albicans ATCC 11651; assay: In vivo systemic Candida infection in mice, primary assay; design: species or system Candida albicans; CF-1 female mice; settings: Candida albicans, 150 mg/kg per day, read-out: % Survival
# Summary of the method: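 CF-1 female mice (20 g, 10 per group) were infected IV with 0.2 ml of 1×10^7/ml C. albicans ATCC 11651, then given test compound subcutaneously at 50 or 150 mg/kg/day at 1 and 6 h post-infection and once daily for three more days. Survival was followed for 21 days against infected untreated mice; ≥70% protection at 14 days was scored active.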
# [4] = test system: Pyricularia oryzae; assay: whole plant or invertebrate; type: in vivo; settings: Pyricularia oryzae, 120 h; for pest or weed control at 100 ppm: read-out: disease control rating, Ex. E, 100 PPM
# [5] = test system: Cercosporidium personatum; assay: Example B Peanut Late Leafspot; type: in vivo; settings: Nothopassalora personata, read-out: disease control rating, Ex. B
# Summary of the method: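 Foliar spray on peanut seedlings, to run-off; test rates 100 or 20 ppm. Formulation: acetone at 6% of final volume, water with 250 ppm polyhydric alcohol ester surfactant.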
# [6] = test system: Erysiphe graminis f. sp. tritici; assay: Example D wheat powdery mildew; type: in vivo; settings: Blumeria graminis, 144 h, read-out: disease control rating, Ex. D
# Summary of the method: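 Spray to run-off on wheat seedlings; test suspension 100 or 20 ppm compound, acetone 6% v/v, 250 ppm polyhydric alcohol ester surfactant in water.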
# [7] = test system: Rhizoctonia solani; assay: Example K cotton blight; type: in vivo; settings: 336 h, 5 kg/ha, read-out: disease control rating, Ex. K
# Experimental: […] Seeds and soil were then inoculated with a mixture of sand, cereal and mycelium of the fungus Rhizoctonia solani, causal agent of cotton blight, and incubated in a growth chamber at 30° C. for 14 days. Disease ratings were then made.
# [8] = test system: Plasmorpara viticola; assay: Example I grape downy mildew; type: in vivo; settings: read-out: disease control rating, Ex. I
# Summary of the method: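 Applied as a foliar spray to run-off on grape seedlings, the compounds were formulated at 100 or 20 ppm in water containing 250 ppm TREM 014, with acetone making up 6% of the volume.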
# [9] = test system: Sclerotium rolfsii; assay: Example M southern blight; type: in vivo; settings: Agroathelia rolfsii, 336 h; 5 kg/ha; read-out: disease control rating, Ex. M
# Experimental: […] Seeds and soil were then inoculated with a mixture of sand, cereal and mycelium of the fungus Sclerotium rolfsii, causal agent of sourthern blight, and incubated in a growth chamber at 30° C. for 14 days. Disease ratings were then made.
# [10] = test system: Botrytis cinerea; assay: Example C bean grey mold; type: in vivo; settings: Botrytis cinerea, 24 h, read-out: disease control rating, Ex. C
# Summary of the method: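 Broad bean seedlings; foliar spray to run-off. Cmpd 100 or 20 ppm in water + 250 ppm TREM 014, acetone 6% v/v final.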
# [11] = test system: Phytophthora infestans; assay: whole plant or invertebrate; type: in vivo; settings: Phytophthora infestans, in Solanum lycopersicum, read-out: disease control rating, Ex. H, 100 PPM
# [12] = test system: Venturia inaequalis; assay: Example A apple scab; type: in vivo; settings: read-out: disease control rating, Ex. A
# Summary of the method: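 Acetone solution (6% of final vol.) → suspension at 100 or 20 ppm in water + 250 ppm TREM 014 surfactant; sprayed to run-off on apple seedlings.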
# [13] = test system: Aspergillus fumigatus ATCC 28214; assay: In vitro antifungal MIC, microtiter broth dilution; settings: Aspergillus fumigatus, ATCC28214, 24 h, read-out: MIC values, A. fumigatus, 30°, 24 hours
# [14] = test system: Rhizoctonia solani; assay: Example F rice sheath blight; type: in vivo; settings: Rhizoctonia solani, 144 h, read-out: disease control rating, Ex. F
# Summary of the method: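 Spray to run-off on rice seedlings; test suspension 100 or 20 ppm compound in water + 250 ppm TREM 014 surfactant, acetone 6% final volume.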
# [15] = test system: Pythium aphanadermatum; assay: Example J cucumber damping off; type: in vivo; settings: Pythium, 336 h; 5 kg/ha; read-out: disease control rating, Ex. J
# Experimental: […] Seeds and soil were then inoculated with a mixture of sand, cereal and mycelium of the fungus Pythium aphanadermatum, causal agent of cucumber damping off, and incubated in a growth chamber at 30° C. for 14 days. Disease ratings were then made.
Structure (SMILES),MIC [1],"responders at 150 mg/kg ([3]; ATCC11651, 168 h, day 7)","responders at 150 mg/kg ([3]; ATCC11651, 336 h, day 14)","responders at 150 mg/kg ([3]; ATCC11651, 504 h, day 21)",pest or weed control at 100 ppm [4],pest or weed control at 5000 g/ha [7],pest or weed control at 100 ppm [8],pest or weed control at 100 ppm [10],pest or weed control at 100 ppm [11],MIC [13],pest or weed control at 100 ppm [14],pest or weed control at 5000 g/ha [15],pest or weed control at 100 ppm [2],pest or weed control at 100 ppm [5],pest or weed control at 100 ppm [6],pest or weed control at 100 ppm [12],further results
"C=C(c1cccc(F)c1)C(O)(Cn1cncn1)c1ccc(Cl)cc1Cl (centres unmarked) [Example 16, 2-(2,4-Dichlorophenyl)-3-(3-fluorophenyl)-1-(1H-1,2,4-triazol-1-yl)-3-buten-2-ol]",0.03 µg/mL,100%,100%,100%,0%,0%,23%,46%,0%,6.3 µg/mL,0%,0%,,,,,"pest or weed control at 20 ppm ([2]; 20 PPM): 100%; pest or weed control at 20 ppm ([4]; read-out: disease control rating, Ex. E, 20 PPM): 0%; pest or weed control at 20 ppm ([5]; 20 PPM): 99%; pest or weed control at 20 ppm ([6]; 20 PPM): 67%; pest or weed control at 5000 g/ha [9]: 0%; pest or weed control at 20 ppm ([10]; 20 PPM): 27%; pest or weed control at 20 ppm ([12]; 20 PPM): 74%; pest or weed control at 20 ppm ([14]; 20 PPM): 0%"
C=C(c1ccccc1)C(O)(Cn1cncn1)c1ccccc1 (centres unmarked) [Example 608],0.4 µg/mL,100%,70%,20%,4%,0%,0%,98%,0%,6.3 µg/mL,81%,0%,100%,100%,98%,87%,
"C=C(c1ccc(F)cc1F)C(O)(Cn1cncn1)c1ccc(F)cc1 (centres unmarked) [Example 94, 2-(4-Fluorophenyl)-3-(2,4-difluorophenyl)-1-(1H-1,2,4-triazol-1-yl)-3-buten-2-ol]",0.4 µg/mL,100%,40%,10%,78%,0%,0%,96%,0%,50 µg/mL,36%,0%,100%,61%,98%,86%,
C=C(c1ccccc1Cl)C(O)(Cn1cncn1)c1ccc(F)cc1 (centres unmarked) [Example 32],≤ 0.4 µg/mL,100%,90%,50%,97%,0%,98%,98%,0%,1.6 µg/mL,33%,0%,100%,100%,95%,100%,
